According to ChEMBL document CHEMBL4270588, “Bioactive heterocycles containing a 3,4,5-trimethoxyphenyl fragment exerting potent antiproliferative activity through microtubule destabilization” (Eur J Med Chem, 2018):
Activity calls are given as the source filed them. The calls are words filed in the database; no cut-off is given here.

Legend:
MGC-803 [1] = assay: Antiproliferative activity against human MGC803 cells after 48 hrs by MTT assay; assay type: functional, cell-based; conditions: MGC-803, 48 h
PC-3 = assay: Antiproliferative activity against human PC3 cells after 48 hrs by MTT assay; assay type: functional, cell-based; conditions: PC-3, 48 h
ECa-109 cell line = assay: Antiproliferative activity against human EC109 cells after 48 hrs by MTT assay; assay type: functional, cell-based; conditions: ECa-109, 48 h
Homo sapiens [2] = species: Homo sapiens; assay: Inhibition of EBI binding to beta-tubulin colchicine binding site in human MGC803 cells at […] preincubated for 2 hrs followed by EBI addition and measured after 2 hrs by Western blot analysis; assay type: cell-based
MGC-803 [3] = assay: Induction of apoptosis in human MGC803 cells assessed as decrease in XIAP level after 48 hrs by Western blot analysis; assay type: functional, cell-based
MGC-803 [4] = assay: Induction of apoptosis in human MGC803 cells assessed as live cells at 400 nM after 48 hrs by Annexin-V-FITC/propidium iodide staining based flow cytometry (reference value: 96.4%); assay type: functional
Tubulin (Homo sapiens) = Tubulin (Homo sapiens) (UniProt P68371+Q9H4B7+P0DPH7+P68366+Q13509+Q71U36+P04350+Q3ZCM7+P07437+P68363+Q9BQE3+Q6PEY2+Q13885+Q9BVA1+Q9BUF5); assay: Inhibition of tubulin polymerization in human MGC803 cells assessed as depolymerization of interphase microtubules at 600 nM after 4 to 8 hrs by DAPI staining based microscopic analysis; assay type: cell-based
MGC-803 [5] = assay: Disruption of mitochondrial membrane potential in human MGC803 cells assessed as collapse of the mitochondrial membrane potential at 200 nM after 48 hrs by JC1 staining based flow cytometry (reference value: 96.1%); assay type: functional
MGC-803 [6] = assay: Induction of apoptosis in human MGC803 cells assessed as late apoptotic cells at 200 nM after 48 hrs by Annexin-V-FITC/propidium iodide staining based flow cytometry (reference value: 1%); assay type: functional
MGC-803 [7] = assay: Cell cycle arrest in human MGC803 cells assessed as accumulation at G1 phase at 400 nM after 48 hrs by propidium iodide staining based flow cytometry (reference value: 62.61%); assay type: functional
MGC-803 [8] = assay: Disruption of mitochondrial membrane potential in human MGC803 cells assessed as intact mitochondrial membrane at 200 nM after 48 hrs by JC1 staining based flow cytometry (reference value: 3.9%); assay type: functional
MGC-803 [9] = assay: Disruption of mitochondrial membrane potential in human MGC803 cells assessed as intact mitochondrial membrane at 400 nM after 48 hrs by JC1 staining based flow cytometry (reference value: 3.9%); assay type: functional
MGC-803 [10] = assay: Cell cycle arrest in human MGC803 cells assessed as accumulation at S phase at 200 nM after 48 hrs by propidium iodide staining based flow cytometry (reference value: 24.8%); assay type: functional
MGC-803 [11] = assay: Induction of apoptosis in human MGC803 cells assessed as early apoptotic cells at 400 nM after 48 hrs by Annexin-V-FITC/propidium iodide staining based flow cytometry (reference value: 2.5%); assay type: functional
Tubulin [12] = assay: Inhibition of tubulin polymerization (unknown origin) measured every 5 mins by fluorescence assay; assay type: protein-complex assay, Homo sapiens
MGC-803 [13] = assay: Cell cycle arrest in human MGC803 cells assessed as accumulation at G2 phase at 200 nM after 48 hrs by propidium iodide staining based flow cytometry (reference value: 8.76%); assay type: functional
MGC-803 [14] = assay: Induction of apoptosis in human MGC803 cells assessed as live cells at 600 nM after 48 hrs by Annexin-V-FITC/propidium iodide staining based flow cytometry (reference value: 96.4%); assay type: functional
MGC-803 [15] = assay: Induction of apoptosis in human MGC803 cells assessed as early apoptotic cells at 600 nM after 48 hrs by Annexin-V-FITC/propidium iodide staining based flow cytometry (reference value: 2.5%); assay type: functional
MGC-803 [16] = assay: Induction of apoptosis in human MGC803 cells assessed as decrease in PARP level after 48 hrs by Western blot analysis; assay type: functional, cell-based
MGC-803 [17] = assay: Induction of apoptosis in human MGC803 cells assessed as early apoptotic cells at 200 nM after 48 hrs by Annexin-V-FITC/propidium iodide staining based flow cytometry (reference value: 2.5%); assay type: functional
MGC-803 [18] = assay: Cell cycle arrest in human MGC803 cells assessed as accumulation at G1 phase at 200 nM after 48 hrs by propidium iodide staining based flow cytometry (reference value: 62.61%); assay type: functional
MGC-803 [19] = assay: Cell cycle arrest in human MGC803 cells assessed as down regulation of CDK1 expression after 48 hrs by Western blot analysis; assay type: functional, cell-based
MGC-803 [20] = assay: Disruption of mitochondrial membrane potential in human MGC803 cells assessed as intact mitochondrial membrane at 600 nM after 48 hrs by JC1 staining based flow cytometry (reference value: 3.9%); assay type: functional
MGC-803 [21] = assay: Cell cycle arrest in human MGC803 cells assessed as down regulation of cyclin B1 expression after 48 hrs by Western blot analysis; assay type: functional, cell-based
MGC-803 [22] = assay: Induction of apoptosis in human MGC803 cells assessed as late apoptotic cells at 600 nM after 48 hrs by Annexin-V-FITC/propidium iodide staining based flow cytometry (reference value: 1%); assay type: functional
MGC-803 [23] = assay: Induction of apoptosis in human MGC803 cells assessed as necrotic cells at 400 nM after 48 hrs by Annexin-V-FITC/propidium iodide staining based flow cytometry (reference value: 0.1%); assay type: functional
MGC-803 [24] = assay: Induction of apoptosis in human MGC803 cells assessed as necrotic cells at 200 nM after 48 hrs by Annexin-V-FITC/propidium iodide staining based flow cytometry (reference value: 0.1%); assay type: functional
MGC-803 [25] = assay: Disruption of mitochondrial membrane potential in human MGC803 cells after 48 hrs by JC1 staining based flow cytometry; assay type: functional, cell-based
MGC-803 [26] = assay: Disruption of mitochondrial membrane potential in human MGC803 cells assessed as collapse of the mitochondrial membrane potential at 400 nM after 48 hrs by JC1 staining based flow cytometry (reference value: 96.1%); assay type: functional
MGC-803 [27] = assay: Induction of apoptosis in human MGC803 cells assessed as decrease in Bcl2 level after 48 hrs by Western blot analysis; assay type: functional, cell-based
MGC-803 [28] = assay: Cell cycle arrest in human MGC803 cells assessed as accumulation at S phase at 400 nM after 48 hrs by propidium iodide staining based flow cytometry (reference value: 24.8%); assay type: functional
MGC-803 [29] = assay: Induction of apoptosis in human MGC803 cells assessed as live cells at 200 nM after 48 hrs by Annexin-V-FITC/propidium iodide staining based flow cytometry (reference value: 96.4%); assay type: functional
MGC-803 [30] = assay: Cell cycle arrest in human MGC803 cells assessed as accumulation at G2 phase at 400 nM after 48 hrs by propidium iodide staining based flow cytometry (reference value: 8.76%); assay type: functional
MGC-803 [31] = assay: Induction of apoptosis in human MGC803 cells assessed as late apoptotic cells at 400 nM after 48 hrs by Annexin-V-FITC/propidium iodide staining based flow cytometry (reference value: 1%); assay type: functional
MGC-803 [32] = assay: Disruption of mitochondrial membrane potential in human MGC803 cells assessed as collapse of the mitochondrial membrane potential at 600 nM after 48 hrs by JC1 staining based flow cytometry (reference value: 96.1%); assay type: functional
MGC-803 [33] = assay: Induction of apoptosis in human MGC803 cells assessed as necrotic cells at 600 nM after 48 hrs by Annexin-V-FITC/propidium iodide staining based flow cytometry (reference value: 0.1%); assay type: functional
Homo sapiens [34] = species: Homo sapiens; assay: Inhibition of EBI binding to beta-tubulin colchicine binding site in human MGC803 cells at 5 uM preincubated for 2 hrs followed by EBI addition and measured after 2 hrs by Western blot analysis; assay type: cell-based
Tubulin [35] = assay: Inhibition of tubulin polymerization (unknown origin) by turbidimetric method; assay type: protein-complex assay, Homo sapiens

## COc1ccc(CN(C(=O)CSc2ccccn2)c2cc(OC)c(OC)c(OC)c2)cc1
MGC-803 [1]
  IC50: 2.41 µM
PC-3
  IC50: 7.51 µM
ECa-109 cell line
  IC50: 16 µM

## COc1ccc(CN(C(=O)CSc2nncs2)c2cc(OC)c(OC)c(OC)c2)cc1
MGC-803 [1]
  IC50: 1.15 µM
PC-3
  IC50: 5.53 µM
ECa-109 cell line
  IC50: 9.84 µM

## COc1ccc(CN(C(=O)CSc2nc3ccccc3o2)c2cc(OC)c(OC)c(OC)c2)cc1
Homo sapiens [2]
  inhibition: Active
MGC-803 [1]
  IC50: 0.45 µM
MGC-803 [3]
  Activity: Dose-dependent effect
MGC-803 [4]
  Activity: 89.7%
Tubulin (Homo sapiens)
  inhibition: Active
MGC-803 [5]
  Activity: 3.9%
MGC-803 [6]
  Activity: 1.1%
MGC-803 [7]
  Activity: 52.55%
MGC-803 [8]
  Activity: 96.1%
MGC-803 [9]
  Activity: 60.1%
MGC-803 [10]
  Activity: 23.29%
MGC-803 [11]
  Activity: 4.1%
Tubulin [12]
  IC50: 3.35 µM
MGC-803 [13]
  Activity: 12.13%
MGC-803 [14]
  Activity: 61.7%
MGC-803 [15]
  Activity: 4.9%
MGC-803 [16]
  Activity: Dose-dependent effect
MGC-803 [17]
  Activity: 2.8%
MGC-803 [18]
  Activity: 61.68%
MGC-803 [19]
  Activity: Dose-dependent effect
MGC-803 [20]
  Activity: 47.2%
MGC-803 [21]
  Activity: Dose-dependent effect
MGC-803 [22]
  Activity: 30.3%
MGC-803 [23]
  Activity: 1.9%
MGC-803 [24]
  Activity: 0.1%
MGC-803 [25]
  Activity: Dose-dependent effect
MGC-803 [26]
  Activity: 39.9%
MGC-803 [27]
  Activity: Dose-dependent effect
MGC-803 [28]
  Activity: 22.46%
PC-3
  IC50: 3.53 µM
MGC-803 [29]
  Activity: 95.9%
MGC-803 [30]
  Activity: 20.71%
MGC-803 [31]
  Activity: 4.3%
ECa-109 cell line
  IC50: 24.8 µM
MGC-803 [32]
  Activity: 52.8%
MGC-803 [33]
  Activity: 3.1%

## COc1ccc(CN(C(=O)CCCSc2nc3ccccc3o2)c2cc(OC)c(OC)c(OC)c2)cc1
MGC-803 [1]
  IC50: 1.29 µM
PC-3
  IC50: 32.7 µM
ECa-109 cell line
  IC50: 11 µM

## COc1ccc(CN(C(=O)CSc2nc3ccc(OC)cc3s2)c2cc(OC)c(OC)c(OC)c2)cc1
MGC-803 [1]
  IC50: 1.27 µM
PC-3
  IC50: 20.2 µM
ECa-109 cell line
  IC50: > 80 µM

## COc1cc2c(c(OC)c1OC)-c1ccc(OC)c(=O)cc1[C@@H](NC(C)=O)CC2 [COLCHICINE]
MGC-803 [1]
  IC50: 0.177 µM
Homo sapiens [34]
  inhibition: Active
PC-3
  IC50: 0.13 µM
ECa-109 cell line
  IC50: 1.24 µM

## COc1ccc(CN(C(=O)CCCCSc2nc3ccccc3o2)c2cc(OC)c(OC)c(OC)c2)cc1
MGC-803 [1]
  IC50: 1.36 µM
PC-3
  IC50: 45.6 µM
ECa-109 cell line
  IC50: 7.65 µM

## Cc1ccc(S(=O)(=O)NCc2cn(Cc3cccc(Oc4ccccc4)c3)nn2)cc1
Tubulin [35]
  IC50: 2.41 µM

## COc1ccc(CN(C(=O)CCSc2nc3ccccc3o2)c2cc(OC)c(OC)c(OC)c2)cc1
MGC-803 [1]
  IC50: 0.64 µM
PC-3
  IC50: 20.2 µM
ECa-109 cell line
  IC50: 12.6 µM

## COc1ccc(CN(C(=O)CSc2nc3ccccc3[nH]2)c2cc(OC)c(OC)c(OC)c2)cc1
MGC-803 [1]
  IC50: 1.23 µM
PC-3
  IC50: 14.3 µM
ECa-109 cell line
  IC50: 42.6 µM

## COc1ccc(CN(C(=O)CSc2nnnn2C)c2cc(OC)c(OC)c(OC)c2)cc1
MGC-803 [1]
  IC50: 2.49 µM
PC-3
  IC50: 10.5 µM
ECa-109 cell line
  IC50: 5.54 µM
